Data from ChEMBL document CHEMBL1201862, “PubChem BioAssay data set” (2004).
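Results reflect a 48-hour exposure of cells in 96-well plates to compound at five concentrations. GI50: concentration for 50% inhibition of growth.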 Activity calls are given as the source filed them. Rule as the data show it: active = GI50 up to about 1.1 µM and inactive = higher.

Key:
Test in all cases: NCI tumour cell line growth inhibition, 48 h
SF-539 = system: SF-539
ACHN = system: ACHN
A498 = system: A498
OVCAR-4 = system: OVCAR-4
SK-MEL-28 = system: SK-MEL-28
SN12C = system: SN12C
786-0 = system: 786-0
U-251 = system: U-251
KM-20L2 = system: KM-20L2
HCC 2998 = system: HCC 2998
NCI-H23 = system: NCI-H23
SR = system: SR
RPMI-8226 = system: RPMI-8226
SNB-78 = system: SNB-78
A549 = system: A549
HOP-92 = system: HOP-92
M14 = system: M14
MDA-MB-231 = system: MDA-MB-231
PC-3 = system: PC-3
Hs-578T = system: Hs-578T

Measured: GI50

COc1cc2c(cc1OC)-c1cc(OC)c(OC)cc1[C@H]1CN3CCC[C@@]3(O)C=C21
active: SF-539 < 0.1 nM | ACHN < 0.1 nM | A498 < 0.1 nM | OVCAR-4 < 0.1 nM | SK-MEL-28 < 0.1 nM | SN12C < 0.1 nM | 786-0 < 0.1 nM | U-251 < 0.1 nM | KM-20L2 < 0.1 nM | HCC 2998 10 nM | NCI-H23 < 0.1 nM | SR < 0.1 nM | RPMI-8226 < 0.1 nM | SNB-78 < 0.1 nM | A549 < 0.1 nM | HOP-92 < 0.1 nM | M14 < 0.1 nM

CC[C@@]1(O)CC(OC2CC(N3CCOCC3)C(O)C(C)O2)c2c(O)c3c(c(O)c2[C@H]1O)C(=O)c1cccc(O)c1C3=O (some centres not stated)
active: SF-539 103 nM | ACHN 35.9 nM | MDA-MB-231 348 nM | PC-3 95.7 nM | A498 191 nM | OVCAR-4 231 nM | SK-MEL-28 378 nM | SN12C 66.7 nM | 786-0 40.7 nM | U-251 80 nM | KM-20L2 191 nM | HCC 2998 223 nM | NCI-H23 175 nM | Hs-578T 348 nM | SR 19.3 nM | RPMI-8226 89.7 nM | SNB-78 305 nM | A549 26.7 nM | HOP-92 42.9 nM | M14 356 nM
